In PMC5504085 (Journal of medicinal chemistry, 2017):

Tested on: recRSV-A2-L19FD489E-fireSMASh
Assay: not given
Format: cell-based, respiratory syncytial virus
Settings: not given

Row | Compound | improvement in antiviral potency compared to hit compound 1a
1 | Cc1ccoc1C(=O)N1CCCn2nc(C(=O)Nc3ccc(F)cc3F)cc2C1 [Compound 8c, N-(2,4-difluorophenyl)-5-(3-methylfuran-2-carbonyl)-5,6,7,8-tetrahydro-4H-pyrazolo[1,5-a][1,4]diazepine-2-carboxamide] | approximately 4 fold
2 | Cc1ccoc1C(=O)N1CCCn2nc(C(=O)Nc3ccccc3F)cc2C1 [Compound 8g, N-(2-fluorophenyl)-5-(3-methylfuran-2-carbonyl)-5,6,7,8-tetrahydro-4H-pyrazolo[1,5-a][1,4]diazepine-2-carboxamide] | approximately 4 fold
3 | Cc1ccoc1C(=O)N1CCCn2nc(C(=O)Nc3ccc(F)cc3Cl)cc2C1 [Compound 8n, N-(2-chloro-4-fluorophenyl)-5-(3-methylfuran-2-carbonyl)-5,6,7,8-tetrahydro-4H-pyrazolo[1,5-a][1,4]diazepine-2-carboxamide] | approximately 4 fold

Same assay, conditions: SAR discussion

Row | Compound | antiviral (anti-RSV) activity in words
4 | 5-(4-Methylisoxazole-5-carbonyl)-N-phenyl-5,6,7,8-tetrahydro-4H-pyrazolo[1,5-a][1,4]diazepine-2-carboxamide [Compound 1q] | complete loss of potency
5 | 5-(4-Methyloxazole-5-carbonyl)-N-phenyl-5,6,7,8-tetrahydro-4H-pyrazolo[1,5-a][1,4]diazepine-2-carboxamide [Compound 1r] | complete loss of potency
6 | Cc1ccsc1C(=O)N1CCCn2nc(C(=O)Nc3ccccc3)cc2C1 [Compound 1c, 5-(3-Methylthiophene-2-carbonyl)-N-phenyl-5,6,7,8-tetrahydro-4H-pyrazolo[1,5-a][1,4]diazepine-2-carboxamide] | complete loss of potency
7 | Cc1cc[nH]c1C(=O)N1CCCn2nc(C(=O)Nc3ccccc3)cc2C1 [Compound 1d, 5-(3-Methyl-1H-pyrrole-2-carbonyl)-N-phenyl-5,6,7,8-tetrahydro-4H-pyrazolo[1,5-a][1,4]diazepine-2-carboxamide] | complete loss of potency
8 | Cc1ccn(C)c1C(=O)N1CCCn2nc(C(=O)Nc3ccccc3)cc2C1 [Compound 1e, 5-(1,3-Dimethyl-1H-pyrrole-2-carbonyl)-N-phenyl-5,6,7,8-tetrahydro-4H-pyrazolo[1,5-a][1,4]diazepine-2-carboxamide] | complete loss of potency
9 | O=C(Nc1ccccc1)c1cc2n(n1)CCCN(C(=O)c1occc1-c1ccccc1)C2 [Compound 1h, N-phenyl-5-(3-phenylfuran-2-carbonyl)-5,6,7,8-tetrahydro-4H-pyrazolo[1,5-a][1,4]diazepine-2-carboxamide] | lacked appreciable inhibitory activity
10 | Cc1c(C(=O)N2CCCn3nc(C(=O)Nc4ccccc4)cc3C2)oc2ccccc12 [Compound 1i, 5-(3-Methylbenzofuran-2-carbonyl)-N-phenyl-5,6,7,8-tetrahydro-4H-pyrazolo[1,5-a][1,4]diazepine-2-carboxamide] | complete loss of potency
11 | O=C(Nc1ccccc1)c1cc2n(n1)CCCN(C(=O)c1occc1C(F)(F)F)C2 [Compound 1j, N-phenyl-5-(3-(trifluoromethyl)furan-2-carbonyl)-5,6,7,8-tetrahydro-4H-pyrazolo[1,5-a][1,4]diazepine-2-carboxamide] | negative impacts on the potency
12 | CCc1ccoc1C(=O)N1CCCn2nc(C(=O)Nc3ccccc3)cc2C1 [Compound 1k, 5-(3-Ethylfuran-2-carbonyl)-N-phenyl-5,6,7,8-tetrahydro-4H-pyrazolo[1,5-a][1,4]diazepine-2-carboxamide] | negative impacts on the potency
13 | Cc1cc(C(=O)N2CCCn3nc(C(=O)Nc4ccccc4)cc3C2)oc1C [Compound 1n, 5-(4,5-Dimethylfuran-2-carbonyl)-N-phenyl-5,6,7,8-tetrahydro-4H-pyrazolo[1,5-a][1,4]diazepine-2-carboxamide] | lacked antiviral activity
14 | Cc1coc(C(=O)N2CCCn3nc(C(=O)Nc4ccccc4)cc3C2)c1 [Compound 1o, 5-(4-Methylfuran-2-carbonyl)-N-phenyl-5,6,7,8-tetrahydro-4H-pyrazolo[1,5-a][1,4]diazepine-2-carboxamide] | loss of activity
15 | Cc1ccc(C(=O)N2CCCn3nc(C(=O)Nc4ccccc4)cc3C2)o1 [Compound 1p, 5-(5-Methylfuran-2-carbonyl)-N-phenyl-5,6,7,8-tetrahydro-4H-pyrazolo[1,5-a][1,4]diazepine-2-carboxamide] | loss of activity
16 | O=C(Nc1ccccc1)c1cc2n(n1)CCCN(C(=O)c1ccncn1)C2 [Compound 1s, N-phenyl-5-(pyrimidine-4-carbonyl)-5,6,7,8-tetrahydro-4H-pyrazolo[1,5-a][1,4]diazepine-2-carboxamide] | complete loss of potency
17 | Cc1ccoc1CN1CCCn2nc(C(=O)Nc3ccccc3)cc2C1 [Compound 1t, 5-((3-Methylfuran-2-yl)methyl)-N-phenyl-5,6,7,8-tetrahydro-4H-pyrazolo[1,5-a][1,4]diazepine-2-carboxamide] | complete loss of bioactivity
18 | O=C(Nc1ccccc1)c1cc2n(n1)CCCN(S(=O)(=O)c1ccco1)C2 [Compound 1u, 5-(Furan-2-ylsulfonyl)-N-phenyl-5,6,7,8-tetrahydro-4H-pyrazolo[1,5-a][1,4]diazepine-2-carboxamide] | complete loss of bioactivity
19 | Cc1ccoc1C(=O)N1CCCn2nc(C(=O)N(C)c3ccccc3)cc2C1 [Compound 8a, N-methyl-5-(3-methylfuran-2-carbonyl)-N-phenyl-5,6,7,8-tetrahydro-4H-pyrazolo[1,5-a][1,4]diazepine-2-carboxamide] | loss of activity
20 | Cc1ccoc1C(=O)N1CCCn2nc(C(=O)Nc3ccc(F)cc3)cc2C1 [Compound 8i, N-(4-fluorophenyl)-5-(3-methylfuran-2-carbonyl)-5,6,7,8-tetrahydro-4H-pyrazolo[1,5-a][1,4]diazepine-2-carboxamide] | nanomolar potency
21 | COc1ccc(NC(=O)c2cc3n(n2)CCCN(C(=O)c2occc2C)C3)cc1 [Compound 8l, N-(4-methoxyphenyl)-5-(3-methylfuran-2-carbonyl)-5,6,7,8-tetrahydro-4H-pyrazolo[1,5-a][1,4]diazepine-2-carboxamide] | nanomolar potency
22 | Cc1ccoc1C(=O)N1CCCn2nc(C(=O)Nc3ccc(F)cc3Cl)cc2C1 [Compound 8n, N-(2-chloro-4-fluorophenyl)-5-(3-methylfuran-2-carbonyl)-5,6,7,8-tetrahydro-4H-pyrazolo[1,5-a][1,4]diazepine-2-carboxamide] | nanomolar potency
23 | Cc1ccoc1C(=O)N1CCCn2nc(C(=O)Cc3ccccc3)cc2C1 [Compound 8p, 1-(5-(3-Methylfuran-2-carbonyl)-5,6,7,8-tetrahydro-4H-pyrazolo[1,5-a][1,4]diazepin-2-yl)-2-phenylethanone] | retained sufficient activity
24 | Cc1ccoc1C(=O)N1CCCn2nc(CNc3ccccc3)cc2C1 [Compound 8q, (3-Methylfuran-2-yl)(2-((phenylamino)methyl)-7,8-dihydro-4H-pyrazolo[1,5-a][1,4]diazepin-5(6H)-yl)methanone] | retained sufficient activity
25 | Cc1ccoc1C(=O)N1CCCn2nc(S(=O)(=O)Nc3ccccc3)cc2C1 [Compound 8r, 5-(3-Methylfuran-2-carbonyl)-N-phenyl-5,6,7,8-tetrahydro-4H-pyrazolo[1,5-a][1,4]diazepine-2-sulfonamide] | loss of activity
26 | Cc1ccoc1C(=O)N1CCCn2nc(NC(=O)c3ccccc3)cc2C1 [Compound 8s, N-(5-(3-methylfuran-2-carbonyl)-5,6,7,8-tetrahydro-4H-pyrazolo[1,5-a][1,4]diazepin-2-yl)benzamide] | loss of activity
27 | Cc1ccoc1C(=O)N1CCCn2nc(NS(=O)(=O)c3ccccc3)cc2C1 [Compound 8t, N-(5-(3-methylfuran-2-carbonyl)-5,6,7,8-tetrahydro-4H-pyrazolo[1,5-a][1,4]diazepin-2-yl)benzenesulfonamide] | loss of activity

Tested on: not listed separately
Assay: Metabolic stability in mouse liver S9 fractions
Format: in vitro ADME
Settings: in the absence of cofactors

Row | Compound | stability with mouse S9 fractions
28 | Cc1ccoc1C(=O)N1CCCn2nc(C(=O)Nc3ccccc3F)cc2C1 [Compound 8g, N-(2-fluorophenyl)-5-(3-methylfuran-2-carbonyl)-5,6,7,8-tetrahydro-4H-pyrazolo[1,5-a][1,4]diazepine-2-carboxamide] | hydrolyzed rapidly

Same assay, conditions: mouse S9 subcellular fractions

Row | Compound | improvement in half-life compared to 8g [fold]
29 | Cc1ccoc1C(=O)N1CCCn2nc(C(=O)Cc3ccccc3)cc2C1 [Compound 8p, 1-(5-(3-Methylfuran-2-carbonyl)-5,6,7,8-tetrahydro-4H-pyrazolo[1,5-a][1,4]diazepin-2-yl)-2-phenylethanone] | 2

Tested on: not listed separately
Assay: Metabolic stability in mouse liver microsomes
Format: in vitro ADME
Settings: without cofactors, 2 hours

Row | Compound | stability of parent in mouse liver microsomes
30 | Cc1ccoc1C(=O)N1CCCn2nc(C(=O)Cc3ccccc3)cc2C1 [Compound 8p, 1-(5-(3-Methylfuran-2-carbonyl)-5,6,7,8-tetrahydro-4H-pyrazolo[1,5-a][1,4]diazepin-2-yl)-2-phenylethanone] | parent remained intact

Tested on: RSV
Assay: not given
Settings: orally available; phase II clinical trials; cited from earlier work

Row | Compound | effect on viral load and disease symptoms
31 | CC(C)C(=O)OC[C@@]1(CCl)O[C@@H](n2ccc(N)nc2=O)[C@H](F)[C@@H]1OC(=O)C(C)C [ALS-8176, 4'-chloromethyl-2'-deoxy-3',5'-di-o-isobutyryl-2'-fluorocytidine] | decreased viral load and disease symptoms
